Test results as given in patent US9056067B2, “Pharmaceutical composition for enhancing immunity, and extract of Poria” (Sinphar Pharmaceutical Co., Ltd., priority 2003, dated 2015).

Legend:
Type in all cases: in vivo, mice
IgA = assay: Serum level of IgA (ELISA); conditions: for Effect on serum concentrations of IgA (in words): oral
Experimental: (§1) […] […] The control group was the mice feeding with an equal volume of saline (0.85% of NaCl). Mice were sacrificed at day five, and both the serum and spleen cells were collected. The sera were subsequently used to measure the concentration of IgG, IgM and IgA. The spleen cells were plated onto a 100 mm diameter culture plate and incubated at 37° C. for three hours. The non-adherent cells containing T-lymphocytes, B-lymphocytes and NK cells were collected and properly diluted as described in each assay.
(§2) The mouse to be sacrificed was cervical dislocated and sterilized with 70% ethanol. The cardiac punctuation was performed first to withdraw the blood. After the haemagglutination, the blood sample was subjected to centrifugation and the serum was collect. For isolation of spleen cells, the peritoneum was opened to remove the spleen. The fresh spleen was transferred to a culture plate containing 10 ml of RPMI-1640 culture medium. The spleen was then ground over a fine mesh to release the spleen cells. The spleen cells suspending in the medium were then removed and transferred to a 50-ml conical centrifuge tube. The tube was subjected to centrifugation at 1300 rpm for 10 min. The supernatant was discarded and the pellet was re-suspended in 1 ml of cold RBC lysing buffer containing EDTA-NH4Cl. The cells were incubated at room temperature for 10 min, followed by washing the cells three times with culture medium by centrifugation. The spleen cells were plated onto a 100 mm diameter culture plate and incubated at 37° C. for three hours. The non-adherent cells containing T-lymphocytes, B-lymphocytes and NK cells were collected and properly diluted as described in each assay.
(§3) An ELISA was performed in our study to measure the immunoglobulin concentration. Briefly, the spleen cells (5×10^5 cells/ml) were cultured in a medium containing RPMI 1640 supplemented with 10% fetal bovine serum (FBS), 2 mM L-glutamine, antibiotics and 5 μg/ml lipopolysaccharide (LPS; 1 μg/10^5 cells) for 5 days. LPS is a polyclonal activator of B lymphocyte. Culture spleen cell supernatants were collected at day 3, 4 and 5. IgA, IgG and IgM concentrations were measured using a sandwich ELISA technique.
The procedure for IgA assay was similar to that for IgG assay, except that the samples were 1/10^4 diluted and standard IgA ranged from 1 μg/ml to 0.0156 μg/ml were added (100 μl/well). The secondary antibody for the assay was HRP-conjugated goat anti-mouse IgA (1:1000 diluted; Zymed Laboratory, CA).

IgG = IgG secretion by spleen cells in vitro (LPS, ELISA) after oral administration
Experimental: as §1, §2, §3
A 96-well microtiter plate (Nunc-Immuno Plate, MaxiSorp, Nunc, Denmark) was precoated with 100 ng/well of capture antibodies at 4° C. overnight. The capture antibody was a rabbit anti-mouse IgG+IgA+IgM antibody (Zymed Laboratory, CA). The plate was washed with PBS-0.05% Tween 20 solution and blocked with PBS-1% gelatin. After the blocking, the properly diluted samples (1/10^5 diluted) and standard IgG ranged from 0.25 μg/ml to 0.039 μg/ml were added (100 μl/well). The plate was then incubated at 37° C. for 2 h. At the end of incubation, HRP-conjugated goat anti-mouse IgG (1:2,000 diluted; anti-whole IgG molecule; Zymed Laboratory, CA) was added (100 μl/well). After 1 h of incubation at 37° C., the color was developed using a substrate solution containing 0.1 M citrate buffer, pH 4.5, 0.03% H2O2 and 0.1% of o-phenylenediamine. The absorbence at 490 nm in each well was read using an ELISA reader (EL311, BioTek, VT), and the data was analyzed using log-logit model.

IL-10 = IL-10 secretion by Con A-stimulated spleen cells (ELISA) after oral administration
Experimental: For the drug treatment, the animals were divided into four groups and oral administration with 1 ml of PCM, ranging from 10, 40 to 80 mg/kg/day, for four days. […] The control group was the mice feeding with an equal volume of saline (0.85% of NaCl). Mice were sacrificed at day five, and both the serum and spleen cells were collected. The sera were subsequently used to measure the concentration of IgG, IgM and IgA. The spleen cells were plated onto a 100 mm diameter culture plate and incubated at 37° C. for three hours. The non-adherent cells containing T-lymphocytes, B-lymphocytes and NK cells were collected and properly diluted as described in each assay.
as §2
For the quantitative analysis of IFN-γ and IL-10, the spleen cells (1×10^6 cells/ml) were cultured in a medium containing RPMI 1640 supplemented with 10% fetal bovine serum (FBS), 2 mM L-glutamine, antibiotics and 1 μg/ml concanavalin A (Con A) for 3 days. Con A is one of the polyclonal activators for T lymphocyte. Culture spleen cell supernatants were collected. The IFNγ and IL-10 concentrations were measured using a cytokine ELISA set (Cyto Set ELISA kit) purchased from R&D Systems (MN, USA).
Cyto Set ELISA was performed as follows: A 96-well microtiter plate (Nunc-Immuno Plate, MaxiSorp, Nunc, Denmark) was precoated with capture antibodies at 4° C. overnight. The capture antibody was a rat monoclonal antibody to mouse IL-10. The samples to be tested and standard IL-10 ranged from 500 pg/ml to 15.6 pg/ml were added (100 μl/well). The plate was then incubated at 37° C. for 20 min. At the end of incubation, the plate was washed five times, followed by adding the biotinylated goat anti IL-10 polyclonal antibody. The color was developed by incubating the plate with a HRP-conjugated streptoavidin (Zymed, CA, USA), followed by a substrate solution containing hydrogen peroxide and tetramethylbenzidine (TMB). The reaction continued for 30 min at room temperature, and was stopped by adding 100 μl of 2N of sulfuric acid. The absorbence at 450 nm in each well was read using an ELISA reader (EL311, BioTek, Winooski, Vt.), and the data was analyzed using log-logit model.
TH1-type cytokines, such as interleukin-2 (IL-2), interferon-γ (IFN-γ) induces the cellular immune response. Whereas, TH2-type cytokines, such as interleukin-4 (IL-4), interleukin-5 (IL-5), interleukin-6 (IL-6), stimulates the B lymphocyte-mediated humoral immune response. […] Spleen cells isolated from the mice treated with PCM and its purified components, such as PCM-K1, -K2, -K3 and K4, were cultured for five days in the presence of ConA. The amount of interferon-γ (IFNγ; TH1-type cytokine) and interleukin-10 (IL-10; TH2-type cytokine) secreted by the spleen T lymphocytes was measured (Table 7.1 & Table 7.2). […]

[1] = oral 10 mg/kg/day for four days
[2] = oral 20 mg/kg/day for four days

SMILES | Effect on serum concentrations of IgA (in words) (IgA) | Serum immunoglobulin concentration IgA (IgA; oral 5 mg/kg/day for four days) [mg/mL] | Serum immunoglobulin concentration IgA (IgA; [1]) [mg/mL] | Serum immunoglobulin concentration IgA (IgA; [2]) [mg/mL] | Effect on IgG secretion by spleen cells (in words) (IgG; oral) | IgG secretion by spleen cell, incubation day 3 (IgG; oral 5 mg/kg/day for four days) | IgG secretion by spleen cell, incubation day 4 (IgG; oral 5 mg/kg/day for four days) | IgG secretion by spleen cell, incubation day 5 (IgG; oral 5 mg/kg/day for four days) | IgG secretion by spleen cell, incubation day 3 (IgG; [1]) | IgG secretion by spleen cell, incubation day 4 (IgG; [1]) | IgG secretion by spleen cell, incubation day 5 (IgG; [1]) | IgG secretion by spleen cell, incubation day 3 (IgG; [2]) | IgG secretion by spleen cell, incubation day 4 (IgG; [2]) | IgG secretion by spleen cell, incubation day 5 (IgG; [2]) | IL-10 secretion by spleen cell (IL-10; oral 5 mg/kg/day for four days) [pg/mL] | IL-10 secretion by spleen cell (IL-10; [1]) [pg/mL] | IL-10 secretion by spleen cell (IL-10; [2]) [pg/mL]
C=C(CC[C@@H](C(=O)O)[C@H]1[C@H](O)C[C@@]2(C)C3=CC[C@H]4C(C)(C)C(=O)CC[C@]4(C)C3=CC[C@]12C)C(C)C [K3] | no effect | 3.65 ± 0.26 | 3.81 ± 0.46 | 3.55 ± 0.37 | significantly suppressed | 3.85 ± 0.73 | 3.43 ± 0.40 | 4.46 ± 0.95 | 3.18 ± 0.55 | 3.16 ± 0.62 | 3.48 ± 0.43 | 6.12 ± 0.70 | 7.10 ± 1.39 | 8.56 ± 1.34 | 262.09 ± 108.41 | 86.48 ± 33.26 | 98.74 ± 27.05
C=C(CCC(C(=O)O)C1C(O)CC2(C)C3=CCC4C(C)(CCC(O)C4(C)C)C3=CCC12C)C(C)C (stereo not drawn) [K4] | no effect | 3.33 ± 0.13 | 3.39 ± 0.25 | 3.54 ± 0.12 |  | 12.55 ± 3.08 | 12.99 ± 0.86 | 18.29 ± 0.92 | 6.54 ± 1.43 | 15.15 ± 5.16 | 22.59 ± 5.35 | 21.23 ± 3.19 | 19.11 ± 4.23 | 22.56 ± 3.84 | 128.91 ± 45.46 | 197.39 ± 68.73 | 155.91 ± 26.16
